Data: publication PMC6832651, “Design, Synthesis and Investigation of the Potential Anti-Inflammatory Activity of 7-O-Amide Hesperetin Derivatives” (Molecules, 2019)
Like-named read-outs stand apart in the source and are kept apart here.

Columns and labels:
[1] = design: method as in PMID 17047689; details: cited from earlier work
[2] = design: method as in PMID 19629709; details: cited from earlier work
[3] = system: RAW264.7 cells; test: MTT cell viability / cytotoxicity assay; assay type: cell-based, mouse; details: concentrations up to 100 μM, MTT (Figure 1)
Method: Compounds 4a–4l, 5a–5b, 6a–6f, 7a–7c were assessed for toxicity against RAW264.7 cell lines using the 3-(4,5-dimethylthiazol-2-yl)-2,5-diphenyltetrazolium bromide (MTT) assay. After 40 μM treatment, the cell viability of all of the hesperetin derivatives was more than 90%. It was thus shown that the anti-inflammatory activities of hesperetin derivatives were not due to their cytotoxicity. In subsequent anti-inflammation studies, the highest concentration of hesperetin derivatives was set below 40 µM.
Cytotoxicity and cell viability was evaluated by a MTT (Sigma, Shanghai, China) assay using a method similar to the one described above. Cells were inoculated at a density of 7.0 × 10^3 cells/well into 96-well plate and cultured at 37 °C for 12 h. […] After that, MTT dissolved in phosphate buffered saline (PBS) and was added to the culture medium to reach a final concentration of 0.5 mg/mL and incubated for another 4 h. The media was removed and 200 μL of DMSO was added and incubated for 30 min. Finally, the cell viability (%) was calculated based on the absorbance measured at the wavelength of 490 nm and measured using a microplate reader (Synergy HTX, Biotek, Winowski, VT, USA). The cell viability were calculated by GraphPad Prism 6 (GraphPad, San Diego, CA, USA).

[4] = system: COX-2; test: Western blotting of COX-2 expression in LPS-induced RAW264.7 cells; assay type: cell-based, mouse; details: compound 5, 10, 20 μM (Figure 3)
Method: (§1) In the process of inflammation, inducible nitric oxide synthase enzymes (iNOS) are induced to overexpression in inflammatory cells when exposed to pro-inflammatory cytokines, which further leads to excessive production of NO. The inhibition of NO production by compound 4d may be correlated with its suppressive effect on LPS-induced iNOS. Thus, the inhibitory effects of compound 4d on LPS-mediated expressions of iNOS were analyzed by western blotting. Nitric oxide synthase (iNOS) protein levels were analyzed after exposure to LPS for 24 h in the presence or absence of compound 4d (5, 10, 20 μM). […] Cyclooxygenase-2 (COX-2) is an important indicator of anti-inflammatory inhibitors, maintaining a low level in normal tissues. […] Bay 11-7082 (5 μM) used as a positive control.
(§2) After the treatment with LPS ([…]) in the presence different concentration gradient or absence of compounds, removed culture supernatants, and cells were collected and lysed with RIPA lysis buffer (Beyotime, Shanghai, China) and phosphatase inhibitors (Beibokit, Bestbio, Shanghai, China). After centrifugation (4 °C, 30 min, 12,000 rpm, Beckman Coulter, Inc., Fullerton, CA, USA), the total protein concentration was determined using BCA Protein Assay Kit (Beyotime, Shanghai, China). […]

[5] = system: NF-κB signal pathway; test: Western blotting of NF-κB signal pathway in LPS-induced RAW264.7 cells; assay type: cell-based, mouse
Text: Stimulation with LPS leads to the activation of nuclear factor-kappa B (NF-κB), which is a well-known transcription factor that positively regulates inflammation. When NF-κB activation is stimulated by LPS, inhibitor of NF-κB (IκB) protein phosphorylated and degraded frees NF-κB p65 subunit from sequestration, allowing it to translocate to the nucleus, bind to target promoters, and turn on the transcriptions of inflammation genes including TNF-α and IL-6. Therefore, Western blotting was used to examine the effects of compound 4d on LPS induced transcriptional activity of NF-κB in RAW264.7 cells.
After the treatment with LPS ([…]) in the presence different concentration gradient or absence of compounds, removed culture supernatants, and cells were collected and lysed with RIPA lysis buffer (Beyotime, Shanghai, China) and phosphatase inhibitors (Beibokit, Bestbio, Shanghai, China). After centrifugation (4 °C, 30 min, 12,000 rpm, Beckman Coulter, Inc., Fullerton, CA, USA), the total protein concentration was determined using BCA Protein Assay Kit (Beyotime, Shanghai, China). Lysates containing […] of total proteins were fractionated on SDS polyacrylamide gel and transferred to a polyvinylidene difluoride membranes (PVDF) (Merck Millipore, Tullagreen Carrigtwohill, Ireland). Membranes were blocked with 5% skim milk or 3% BSA (Albumin Bovine V, Sigma) in TBST and incubated at 4 °C overnight with their respective primary antibody: β-actin (1:1000 dilution; Abcam, Cambridge, MA, USA), iNOS (1:1000 dilution; Abcam, Cambridge, MA, USA), COX-2 (1:1000 dilution; CST, Danvers, MA, USA ), NF-κB (1:1000 dilution; CST, Danvers, MA, USA). After washing three times with TBST, membranes were incubated with secondary antibody for 1 h in room temperature on the shaker. Protein bands were visualized by the ultra-sensitive enhanced chemiluminescent (ECL) substrate (ECL-plus, Thermo Scientific, Rockford, IL, USA), after washing three times with TBST [34].

[6] = system: LPS-induced NO production in RAW264.7 cells; test: Inhibition of LPS-induced NO production (Griess reagent); assay type: cell-based; details: Mus musculus, 10 μM compound, 1 h pretreatment, then LPS (1 μg/mL) 24 h, mean ± SD (n = 3)
[7] = system: IL-1β; test: IL-1β level in medium of LPS-induced RAW264.7 cells (ELISA); assay type: cell-based, mouse; details: 10 μM compound (Figure 2A-C)
Text: (§3) When inflammation occurs, LPS-activated macrophages produce a variety of inflammatory cytokines, including TNF-α, interleukins (ILs), and nitric oxide (NO), which show a host shielding effect and also accelerate the occurrence of the inflammatory response during inflammatory situations. To evaluate the anti-inflammatory activity of hesperetin derivatives, the levels of TNF-α, IL-6 and IL-1β in the medium of LPS-induced macrophage cells were detected by enzyme linked immunosorbent assay (ELISA). […] Later, we will select one of them as lead compound and modify the structure at the 3’-OH, 5-OH and 4-carbonyl positions. […] Compounds 4d (MW = 401) and 4k (MW = 427) have similar structures and should have the same mechanism. Therefore, compound 4d with lower molecular weight was selected to further explore the mechanism(s) of the anti-inflammatory effect.
(§4) RAW264.7 cells (2 × 10^5 cells/well) were cultured in 24-well plate and pretreated with 10 μM of compounds for 1 h. And then stimulated with LPS, […], for 24 h. The cell culture supernatant were collected and the levels of TNF-α, IL-6 and IL-1β were determined using the ELISA kit (Elabscience, Wuhan, China). The optical density (OD) was measured at 540 nm. The results were analyzed using Origin Pro 8 (OriginLab, Northampton, MA, USA).

[8] = system: iNOS; test: Western blotting of iNOS expression in LPS-induced RAW264.7 cells; assay type: cell-based, mouse; details: LPS 24 h, compound 5, 10, 20 μM (Figure 3)
Method: as §1, §2

[9] = system: LPS-induced NO production in RAW264.7 cells; test: Inhibition of LPS-induced NO production (Griess reagent); assay type: cell-based, mouse
Method: NO is an important inflammatory mediator and is overproduced and secreted out of mouse macrophages in response to bacterial lipopolysaccharide. To evaluate the anti-inflammatory activity of hesperetin derivatives, the secretion level of NO was detected in the medium of RAW264.7 cells after LPS stimulated with Griess reagent. Before the cells were treated with LPS (1 μg/mL) for 24 h, pretreatment with the compounds for 1 hour. […] All hesperetin derivatives could decrease the release of NO induced by LPS. […] While extended the length of the amide side chain and the inhibitory activities increased (4d > 4c > 4a; 4e > 4b). […] On the other hand, the cavity was medium-sized, large enough to accommodate cyclopentyl and propyl groups, but not enough to accommodate cyclohexyl and butyl ones (4a < 4b < 4d > 4f; 4k > 4l).
Nitrite levels were determined using the Griess method for NO has a short half-life and is oxidized to stable nitrite. RAW 264.7 cells were plated at a density of 2 × 10^5 per well in a 24-well culture plate and incubated in a 37 °C humidified incubator (5% CO2). After overnight Cultured, discarded the supernatant, added pre-configured compounds of different concentrations to the 24-well plate, and added the same one-thousandth of the DMSO solvent as the control to the experimental group for 1 h. Then LPS was added to experimental and model groups at a concentration of […] for 24 h compared to vehicle control. Following treatment, media was collected and centrifuged at 2000 rpm for 5 min to remove cellular debris. The medium from treated cells was removed and placed into a 96-well plate (50 µL per well) and was measured in culture supernatant using Griess reagent at 540 nm. The IC50 values of compounds were calculated by SPSS23.

[10] = system: IL-6; test: IL-6 level in medium of LPS-induced RAW264.7 cells (ELISA); assay type: cell-based, mouse; details: 10 μM compound (Figure 2A-C)
Text: as §3, §4

[11] = system: TNF-α; test: TNF-α level in medium of LPS-induced RAW264.7 cells (ELISA); assay type: cell-based, mouse; details: 10 μM compound (Figure 2A-C)
Text: as §3, §4

Row | Compound | elimination half-life (t1/2) [1] [h] | elimination half-life (t1/2) [2] [h] | cytotoxicity [3] | expression level of COX-2 [4] | phosphorylation of IκBα ([5]; LPS-induced RAW264.7 cells (Figure 4)) | protein expressions of NF-κB and IκBα ([5]; LPS-induced RAW264.7 cells, compared with the LPS induced group (Figure 4)) | LPS-induced NF-κB p65 nuclear translocation ([5]; RAW264.7 cells, pretreatment 5, 10, 20 µM) | melting point [°C] | inhibition at 10 µM [6] [%] | inhibitory effect on IL-1β production [7] | expression level of iNOS [8] | LPS-induced NO release ([9]; LPS-stimulated, result in words) | IC50 ([9]; Mus musculus, 1 h pretreatment, then LPS 24 h, mean ± SD (n = 3)) [µM] | inhibitory effect on IL-6 production [10] | inhibitory effect on TNF-α production [11]
1 | COc1ccc([C@@H]2CC(=O)c3c(O)cc(O)cc3O2)cc1O [hesperetin] | 1.78 | 3.12 |  |  |  |  |  |  |  |  |  |  |  |  | 
2 | CCCNC(=O)COc1cc(O)c2c(c1)O[C@H](c1ccc(OC)c(O)c1)CC2=O [Compound 4d, 7-O-(2-(Propylamino)-2-oxoethyl)hesperetin] |  |  | no significant cytotoxicity | capable of reducing the expression level of COX-2 in a concentration-dependent way | markedly decreased | down-regulated | concentration-dependently reversed | 135.5 to 137.7 | 38.2 ± 1.13 | greater inhibitory effects than indomethacin (Ind) and celecoxib (Cel) | significantly decreased the expression level of iNOS induced by LPS in a dose-dependent manner | significantly alleviated the increase of LPS-induced NO release | 19.3 ± 0.47 | greater inhibitory effects than indomethacin (Ind) and celecoxib (Cel) | greater inhibitory effects than indomethacin (Ind) and celecoxib (Cel)
